The source of these data is patent US11759412B2, “Personal care compositions with glutathione precursor comprising 4-substituted resorcinols and amino acids” (Conopco, Inc., priority 2016, dated 2023).

Common to all, as to type: cell-based
The test system of series [1] is Human Keratinocytes. Description: Cell Viability Assay (CCK-8, menadione). The following applies: for Cell viability (% of vehicle of control): Table 2H. The protocol: Human Keratinocytes (Promocell, Heidelberg, Germany) were maintained in EpiLife® keratinocyte medium containing 60 uM calcium chloride and 1% Human Keratinocyte Growth Supplement (HKGS). The medium was refreshed every other day. Subsequently, cells were trypsinized at 90% confluency and seeded at a density of 2×10^4 per well into 96-well transparent tissue culture plates. On the second day after seeding, cell medium was replaced with treatments as described above in ROS assay section. After 18 hours, […] (CCK-8) reagent (Dojindo, Kumamoto, Japan) was diluted 1:10 in HBSS and incubated with cells for 4 h at 37° C. in a humidified incubator. Optical absorption at 450 nm was measured using a Tecan Safire2 plate reader. Relative viability was calculated with normalization based on the vehicle control treatment, which was set to 100%.
Where indicated, percent protection was calculated as a comparison to menadione alone treatment, using the measured relative absorbance units in the following equation: […]

For a further series, the system named is Aged Human Keratinocytes. Description: Glutathione Assay (total glutathione, GSH-GSSG Glo, menadione challenge). Conditions: for synergistic increase in GSH synthesis, combination with GAP amino acids vs either alone: resorcinol/test reagent combined with GAP, + menadione. On the procedure: Aged Human Keratinocytes (Cascade Biologics, now ThermoFisher Scientific, Waltham, Mass.) were maintained in Epi Life® medium containing 60 uM calcium chloride and 1% Human Keratinocyte Growth Supplement (both media components from ThermoFisher Scientific) in a humidified incubator with an atmosphere containing 5% CO2 at 37° C. The medium was refreshed every 2-3 days. Subsequently, cells were trypsinized at 90% confluency and seeded at a density of 1×10^4 per well into 96-well plates with white wall and clear bottom. One or two days after seeding, cell medium was replaced with Hank's Balanced Salt Solution (HBSS), and keratinocytes were pre-treated with GAP (or 0.12-0.240 mM sodium hydroxide vehicle control, pH 7.5) alone or in combination with additional test reagents described above or L-cystine esters alone for 1-2 hours. The concentration of all amino acids constituting the GAP mixture used in this assay are designated in the data tables, and fully described in the abbreviations list below.
After one or two hours of pre-treatment with GAP or additional test reagents, alone or in combination, keratinocytes were then challenged with 25 uM menadione (Sigma-Aldrich), a known inducer of oxidative stress. After 18-20 hours, cells were harvested and analyzed for total glutathione levels using a commercially available kit (GSH-GSSG GLo Assay, Promega), a luminescence-based system for the detection and quantification of total glutathione in cultured cells. In summary, after cell treatment, the media was removed and replaced with a cell lysis reagent for 5 minutes at 20-25° C.; note, all remaining steps were also conducted at 20-25° C. Next, a luciferase generation reagent was added to each well and incubated for 30 minutes. Following this step, a luciferin detection reagent was added to each well and plates were incubated for 15 minutes. Finally, plates were then read for luminescence in a FlexStation 3 plate reader (Molecular Devices). Total glutathione levels were calculated after interpolation of glutathione concentrations from a standard curve. Experimental conditions were typically conducted in at least triplicate determinations. Statistical significance was calculated using 1-way ANOVA. Percent protection was calculated by using the calculated glutathione levels from each experiment in the following equation: […]

The subject of series [2] is Human Keratinocytes. Nature of the series: Reactive Oxygen Species (ROS) Assay (CellROX green, menadione). Conditions: for synergistic decrease in ROS production, combination with GAP amino acids vs either alone: resorcinol/test reagent combined with GAP. The protocol: Human Keratinocytes (Promocell, Heidelberg, Germany) were maintained in EpiLife® keratinocyte medium containing 60 uM calcium chloride and 1% Human Keratinocyte Growth Supplement (HKGS) in a humidified incubator with an atmosphere containing 5% CO2 at 37° C. The medium was refreshed every other day. Subsequently, cells were trypsinized at 90% confluency and seeded at a density of 1-2×10^4 per well into 96-well plates with black wall and clear bottom. On the second day after seeding, cell medium was replaced with Hank's Balanced Salt Solution (HBSS) with or without menadione (10-25 uM), GAP (typically at 49 uM pyroglutamic acid, 60 uM cystine, 194 uM glycine), GAP vehicle (0.2 mM NaOH, pH 7.5), above-described additional test reagents, or combinations of GAP with additional test reagents or L-cystine esters alone, and incubated for additional 18 hours. For ROS detection, CellROX green (Life Tech, Thermo Fisher Scientific, Rockford, USA) reagent was added into each well to a final concentration of 15-25 uM and incubated for additional 2-4 hours at 37° C. in a humidified incubator. The ROS fluorescence was detected using a Tecan microplate reader (Excitation/Emission=490/525). Relative ROS production was calculated with normalization based on the vehicle control treatment which was set to 100%. Where indicated, percent protection was calculated as a comparison to menadione alone treatment, using the measured relative fluorescent units in the following equation: […]
ROS levels were evaluated together with cell viability because it is possible to get a false negative for ROS if treatment is so toxic, that at the time of assay, cells are dead (and there are no longer any detectable ROS). Decrease in ROS levels is meaningful if cells are still viable.

Series [3] has as its target T1, tyrosinase in Human primary melanocytes (Homo sapiens, UniProt P14679).
T1 construct: host or cells: Human primary melanocytes
T1 sequence (P14679 19-529): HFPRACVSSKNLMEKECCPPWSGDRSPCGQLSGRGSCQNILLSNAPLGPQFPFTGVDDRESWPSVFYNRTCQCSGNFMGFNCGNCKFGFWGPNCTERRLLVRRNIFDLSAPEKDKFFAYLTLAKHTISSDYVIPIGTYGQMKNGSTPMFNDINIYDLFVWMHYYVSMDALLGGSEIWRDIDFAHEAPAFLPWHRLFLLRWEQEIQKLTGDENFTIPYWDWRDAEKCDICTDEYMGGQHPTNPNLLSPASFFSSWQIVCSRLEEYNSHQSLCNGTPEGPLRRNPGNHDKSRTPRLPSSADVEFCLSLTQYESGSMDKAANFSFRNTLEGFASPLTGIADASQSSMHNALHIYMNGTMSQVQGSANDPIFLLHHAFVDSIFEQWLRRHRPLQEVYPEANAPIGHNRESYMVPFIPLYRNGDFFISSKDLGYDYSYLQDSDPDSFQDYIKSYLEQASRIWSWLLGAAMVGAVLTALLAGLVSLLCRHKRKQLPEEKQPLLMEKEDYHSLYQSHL
Nature of the series: Tyrosinase Activity Assay (in situ, melanocyte lysate, DOPA/MBTH). Conditions: Table 4, GAP where present: glutamine 32 uM, cystine 40 uM, glycine 129 uM, 72 hours. On the procedure:
Human primary melanocytes (Cascade Biologics, now ThermoFisher Scientific) were grown in melanocytes growth medium (MGM) with human melanocyte growth supplement (both media components from ThermoFisher Scientific). Melanocytes were seeded at 1×10^4 cells/well in a 96 wells plate and cultures left undisturbed for 24 hrs in a 5% CO2 humidified incubator at 37° C. At 24 hrs post-seeding, cells were treated with GAP amino acids (consisting of glutamine (32 uM), cystine (40 uM), glycine (129 uM)) alone or in combination with test reagents described above, and left undisturbed for another 72 hours. Subsequently, cell viability was assessed and the cells were then lysed and progressed for determination of in situ tyrosinase activity. Cultures were rinsed twice with 1× phosphate-buffered saline and lysed with 40 uL of 0.5% TritonX 100 for 1 hour on an ice bed. In situ tyrosinase activity was visualized by addition of 60 μl of 50 mM potassium phosphate buffer (pH 6.8) containing 2 mM DOPA (3,4 dihydroxy phenylalanine) and 4 mM MBTH reagent (3-Methyl-2-Benzothiazolinone hydrazone hydrochloride) for 1 hour at 37° C. The reaction was stopped by the addition of 100 uL of ice-cold 10% tricholoracetic acid and then centrifuged at approximately 300 g for 10 minutes at 4° C. The soluble supernatant was separated from the pellet and the optical density read in a TECAN plate-reader (540 nm filter). The spectrophotometric optical density at 540 nm for untreated cells (no active) is considered as 100% tyrosinase activity. Tyrosinase activity is expressed after correction for cell numbers (activity/viability) and represented as % control.

Setting [4] is: Table 1A, HR 20 uM where present, + menadione 25 uM.
The mark [5] stands for this setting: Table 2F, PER 20 uM where present, + menadione.
The mark [6] stands for this setting: Table 2G, PER 10 uM + menadione.
[7] abbreviates: Table 2G, PER 20 uM + menadione.
Setting [8] is: Table 2G, PER 50 uM + menadione.

As usually defined, the inhibition is the percentage by which the read-out fell short of the control. As for `CCc1ccc(O)cc1O` [ER, 4-ethylresorcinol], the entries for the “Cell viability (% of vehicle of control)” value in the series on Human Keratinocytes [1] (ER 10 uM + menadione) and in the series on Human Keratinocytes [1] (ER 20 uM + menadione) were 36.6% and 39.8%, respectively. Also, the “% Protection (improvement vs. vehicle control + menadione)” value with Aged Human Keratinocytes (Table 2C, ER 40 uM + menadione) is reported as 0%; in the series with Aged Human Keratinocytes (Table 2C, ER 50 uM + menadione), −4%; in the series on Aged Human Keratinocytes (Table 2C, ER 60 uM + menadione) it was −1%. For the same compound, the “Glutathione Synthesis, Mean (uM glutathione)” value (from here on “Glutathione Synthesis, Mean”) in the series with Aged Human Keratinocytes (Table 2C, ER 40 uM + menadione) is 0.36 µM; in the series on Aged Human Keratinocytes (Table 2C, ER 50 uM + menadione) it was 0.25 µM; with Aged Human Keratinocytes (Table 2C, ER 60 uM + menadione), 0.34 µM. Moreover, the “synergistic increase in GSH synthesis, combination with GAP amino acids vs either alone” value (from here on “synergistic increase in GSH synthesis”) in the series with Aged Human Keratinocytes is recorded as “synergistic increase”. The “Mean ROS production (% of vehicle control)” value is on record as 287.5% in the series with Human Keratinocytes [2] (Table 2H, ER 10 uM + menadione) and 308.3% with Human Keratinocytes [2] (Table 2H, ER 20 uM + menadione). The “synergistic decrease in ROS production, combination with GAP amino acids vs either alone” value (from here on “synergistic decrease in ROS production”) in the series with Human Keratinocytes [2] (+ menadione) is “not observed”. For the same compound, the inhibition at 5 µM in series [3] (resorcinol (HR or ER) 5 uM) is 67%. For the same compound, the inhibition at 10 µM in series [3] (resorcinol (HR or ER) 10 uM) came to 68%.
Regarding `CCCCCCc1ccc(O)cc1O` [HR, 4-hexylresorcinol], the “% Protection (improvement vs vehicle control + menadione), cell viability” value with Human Keratinocytes [1] (Table 2D, HR 10 uM + menadione) is 18.85^3%; with Human Keratinocytes [1] (Table 2D, HR 20 uM + menadione), −79.00%. The “Cell viability (% of control)” value in the series with Human Keratinocytes [1] (Table 2D, HR 10 uM + menadione) is on record as 65.1^3%; in the series on Human Keratinocytes [1] (Table 2D, HR 20 uM + menadione) it was 11.0%. The “% Protection (improvement vs. vehicle control + menadione)” value is recorded as 22^1% in the series on Aged Human Keratinocytes (setting [4]); 4% in the series on Aged Human Keratinocytes (Table 2A, HR 10 uM + menadione); 5% in the series with Aged Human Keratinocytes (Table 2A, HR 20 uM + menadione); 1% with Aged Human Keratinocytes (Table 2A, HR 40 uM + menadione); 0% in the series on Aged Human Keratinocytes (Table 2A, HR 60 uM + menadione). Also, the “Glutathione Synthesis, Mean” value in the series on Aged Human Keratinocytes (setting [4]) is 0.46^1 uM; with Aged Human Keratinocytes (Table 2A, HR 10 uM + menadione) it was 0.24 µM; with Aged Human Keratinocytes (Table 2A, HR 20 uM + menadione) it was 0.28 µM; in the series on Aged Human Keratinocytes (Table 2A, HR 40 uM + menadione), 0.19 µM; in the series with Aged Human Keratinocytes (Table 2A, HR 60 uM + menadione) it was 0.14 µM. Further, in the series on Aged Human Keratinocytes, the “synergistic increase in GSH synthesis” value is listed as “synergistic increase”. In addition, the “% protection (improvement vs vehicle control + menadione), ROS” value in the series on Human Keratinocytes [2] (Table 2D, HR 10 uM + menadione) is reported as 69.6^3%; with Human Keratinocytes [2] (Table 2D, HR 20 uM + menadione) it was 76.49^3%. The “Mean ROS production (% of vehicle control)” value is 153.4^3% in the series with Human Keratinocytes [2] (Table 2D, HR 10 uM + menadione) and 118.7^3% in the series on Human Keratinocytes [2] (Table 2D, HR 20 uM + menadione). Also, in the series with Human Keratinocytes [2] (+ menadione), the “synergistic decrease in ROS production” value is “synergistic decrease”. Further, the figures for the “Tyrosinase activity inhibition, Mean of % Inhibition” value in series [3] (resorcinol (HR or ER) 5 uM) and in series [3] (resorcinol (HR or ER) 10 uM) were 63^1% and 71^1%, respectively.
For `CC(c1ccccc1)c1ccc(O)cc1O` (stereo not drawn) [PER, 4-(1-phenylethyl)resorcinol], in the series with Human Keratinocytes [1] (setting [5]), the “% Protection (improvement vs vehicle control + menadione), cell viability” value came out at 1.09% and the “Cell viability (% of control)” value came to 62.3%. For the same compound, in the series with Aged Human Keratinocytes (setting [6]), the “% Protection (improvement vs vehicle control + menadione)” value is reported as −2% and the “Glutathione Synthesis, Mean” value stood at 0.12 µM. Also, in the series with Aged Human Keratinocytes (setting [7]), the “% Protection (improvement vs vehicle control + menadione)” value amounted to 3% and the “Glutathione Synthesis, Mean” value is 0.25 µM. Moreover, in the series with Aged Human Keratinocytes (setting [8]), the “% Protection (improvement vs vehicle control + menadione)” value amounted to 12% and the “Glutathione Synthesis, Mean” value stood at 0.50 µM. Further, the “synergistic increase in GSH synthesis” value in the series with Aged Human Keratinocytes is recorded as “not observed”. Moreover, in the series with Human Keratinocytes [2] (setting [5]), the “% protection (improvement vs vehicle control + menadione), ROS” value is recorded as −6.74% and the “Mean ROS production (% of vehicle control)” value was 321.5%. Besides, the “synergistic decrease in ROS production” value in the series on Human Keratinocytes [2] (+ menadione) is on record as “synergistic decrease”.
